Reference: the supplement of paper PMC11061612

Key:
Test in all cases: combination Emax (second highest fraction inhibited in the dose matrix, 72 h); higher = more inhibition; extreme values may be limits of the assay
[1] = test system: SU8686 (Pancreatic Carcinoma)
How it was run: (§1)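 Cell lines grown in DMEM/F12 or RPMI with 10% FBS were plated in 1536-well plates and held 24 hours at 37°C, 5% CO2 before 72 hours of exposure to two-drug dose matrices, with DMSO typically at 0.2%. CellTiter-Glo 2.0 luminescence gave viability, which was converted to inhibition. Vehicle wells were set to 0 and blank wells to 1. Combination Emax is the second-highest inhibition in the matrix, and Bliss excess is the observed combination effect minus the expected EA + EB − EA·EB, where EA and EB are the single-agent effects.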

[2] = test system: HSC-4 (Oral Cavity Carcinoma)
How it was run: as §1

[3] = test system: Ca9-22 (Head and Neck Carcinoma)
How it was run: as §1

[4] = test system: HOP-62 (Lung Adenocarcinoma)
How it was run: as §1

[5] = test system: TK10 (Kidney Carcinoma)
How it was run: as §1

[6] = test system: SCC-15 (Oral Cavity Carcinoma)
How it was run: as §1

[7] = test system: TGW (Neuroblastoma)
How it was run: as §1

[8] = test system: Hs-766T (Pancreatic Carcinoma)
How it was run: as §1

[9] = test system: EW-24 (Ewing's Sarcoma)
How it was run: as §1

[10] = test system: TE-1 (Esophageal Squamous Cell Carcinoma)
How it was run: as §1

[11] = test system: KYSE-450 (Esophageal Squamous Cell Carcinoma)
How it was run: as §1

[12] = test system: LU-65 (Non-Small Cell Lung Carcinoma)
How it was run: as §1

[13] = test system: ACHN (Kidney Carcinoma)
How it was run: as §1

[14] = test system: EFM-19 (Breast Carcinoma)
How it was run: as §1

[15] = test system: SW13 (Other Solid Carcinomas)
How it was run: as §1

[16] = test system: OE19 (Esophageal Adenocarcinoma)
How it was run: as §1

[17] = test system: NCI-H358 (Lung Adenocarcinoma)
How it was run: as §1

[18] = test system: C-4-I (Cervical Carcinoma)
How it was run: as §1

[19] = test system: NEC8 (Other Solid Carcinomas)
How it was run: as §1

[20] = test system: OSC-20 (Oral Cavity Carcinoma)
How it was run: as §1

| Compound | combination Emax [1] | combination Emax [2] | combination Emax [3] | combination Emax [4] | combination Emax [5] | combination Emax [6] | combination Emax [7] | combination Emax [8] | combination Emax [9] | combination Emax [10] | combination Emax [11] | combination Emax [12] | combination Emax [13] | combination Emax [14] | combination Emax [15] | combination Emax [16] | combination Emax [17] | combination Emax [18] | combination Emax [19] | combination Emax [20] |
| --- | --- | --- | --- | --- | --- | --- | --- | --- | --- | --- | --- | --- | --- | --- | --- | --- | --- | --- | --- | --- |
| COc1cccc(OCCCN)c1-c1cc(Nc2cnc(C#N)cn2)n[nH]1 [Prexasertib] + C=CCn1c(=O)c2cnc(Nc3ccc(N4CCN(C)CC4)cc3)nc2n1-c1cccc(C(C)(C)O)n1 [AZD1775] (first compound max 1 µM, partner max 1 µM) | 0.531 | 0.641 | 1 | 0.627 | 0.661 | 0.638 | 0.999 | 0.694 | 0.7 | 0.763 | 0.999 | 0.873 | 0.96 | 0.62 | 0.526 | 0.943 | 0.769 | 0.962 | 0.999 | 0.534 |
| Cc1c2c(nn1C)CSCc1cc(n(C)n1)CSc1cc(c3ccccc3c1)OCCCc1c(C(=O)O)n(C)c3c-2c(Cl)ccc13 [AZD5991] + C[C@@H](Nc1cc(F)cc(F)c1)c1cc(C(=O)N(C)C)cc2c(=O)cc(N3CCOCC3)oc12 [AZD8186] (first compound max 1 µM, 7x7, partner max 3 µM) | 0.378 | 0.24 | 0.521 | 0.281 | 0.419 | 0.322 | 0.347 | 0.45 | 0.291 | 0.589 | 0.234 | 0.449 | 0.342 | 0.586 | 0.947 | 0.49 | 0.282 | 0.985 | 0.369 | 0.237 |
| COc1cccc(OCCCN)c1-c1cc(Nc2cnc(C#N)cn2)n[nH]1 [Prexasertib] + O=C(c1cc(Cc2n[nH]c(=O)c3ccccc23)ccc1F)N1CCN(C(=O)C2CC2)CC1 [Olaparib] (first compound max 1 µM, 7x7, partner max 10 µM) | 0.527 | 0.674 | 0.991 | 0.606 | 0.625 | 0.482 | 0.915 | 0.658 | 0.696 | 0.621 | 0.744 | 0.788 | 0.906 | 0.354 | 0.39 | 0.648 | 0.85 | 0.929 | 0.968 | 0.648 |
| COc1nnc2ccc(N3CCC(c4ccc(OCCN5CCN(C)C(=O)[C@H]5C)cc4)CC3)nn12 [AZD5153] + Cc1c2c(nn1C)CSCc1cc(n(C)n1)CSc1cc(c3ccccc3c1)OCCCc1c(C(=O)O)n(C)c3c-2c(Cl)ccc13 [AZD5991] (first compound max 1 µM, 7x7, partner max 1 µM) | 0.134 | 0.199 | 0.815 | 0.602 | 0.593 | 0.436 | 0.808 | 0.459 | 0.685 | 0.511 | 0.494 | 0.623 | 0.537 | 0.773 | 0.969 | 0.623 | 0.448 | 0.933 | 1 | 0.199 |
| CN(C)CCCOc1ccc(-c2ccc3ncc4c(c3c2)n(C2CCOCC2)c(=O)n4C)cn1 [AZD0156] + O=C(c1cc(Cc2n[nH]c(=O)c3ccccc23)ccc1F)N1CCN(C(=O)C2CC2)CC1 [Olaparib] (first compound max 3 µM, partner max 3 µM) | 0.146 | 0.234 | 0.465 | 0.122 | 0.197 | 0.277 | 0.413 | 0.207 | 0.473 | 0.0888 | 0.159 | 0.268 | 0.338 | 0.533 | 0.421 | 0.512 | 0.247 | 0.362 | 0.277 | 0.245 |
| CC1(C)CCC(CN2CCN(c3ccc(C(=O)NS(=O)(=O)c4ccc(NCC5CCOCC5)c([N+](=O)[O-])c4)c(Oc4cnc5[nH]ccc5c4)c3)CC2)=C(c2ccc(Cl)cc2)C1 [Venetoclax] + C1CN(CCC1(C(=O)N[C@@H](CCO)C2=CC=C(C=C2)Cl)N)C3=NC=NC4=C3C=CN4 [Capivasertib] (first compound max 1 µM, 7x7, partner max 3 µM) | 0.059 | 0.306 | 0.212 | 0.14 | 0.339 | 0.226 | 0.465 | 0.225 | 0.395 | 0.162 | 0.197 | 0.462 | 0.81 | 0.489 | 0.254 | 0.306 | 0.33 | 0.235 | 0.174 | 0.265 |
| NC1(C(=O)N[C@@H](CCO)c2ccc(Cl)cc2)CCN(c2ncnc3[nH]ccc23)CC1 [Capivasertib] + CC(=O)c1c(C)c2cnc(Nc3ccc(N4CCNCC4)cn3)nc2n(C2CCCC2)c1=O [Palbociclib] (first compound max 10 µM, 7x7, partner max 10 µM) | 0.07 | 0.423 | 0.442 | 0.572 | 0.516 | 0.35 | 0.378 | 0.36 | 0.495 | 0.204 | 0.351 | 0.448 | 0.658 | 0.481 | 0.261 | 0.523 | 0.436 | 0.519 | 0.187 | 0.279 |
| CC1(C)CCC(CN2CCN(c3ccc(C(=O)NS(=O)(=O)c4ccc(NCC5CCOCC5)c([N+](=O)[O-])c4)c(Oc4cnc5[nH]ccc5c4)c3)CC2)=C(c2ccc(Cl)cc2)C1 [Venetoclax] + Cc1cc2ncnn2cc1Nc1ncc2c(n1)n(C1CCOCC1)c(=O)n2C [AZD7648] (first compound max 1 µM, 7x7, partner max 10 µM) | 0.152 | 0.11 | 0.128 | 0.172 | 0.281 | 0.212 | 0.393 | 0.372 | 0.38 | 0.0373 | 0.14 | 0.378 | 0.725 | 0.417 | 0.302 | 0.281 | 0.293 | 0.222 | 0.205 | 0.205 |
| CC1(C)CCC(CN2CCN(c3ccc(C(=O)NS(=O)(=O)c4ccc(NCC5CCOCC5)c([N+](=O)[O-])c4)c(Oc4cnc5[nH]ccc5c4)c3)CC2)=C(c2ccc(Cl)cc2)C1 [Venetoclax] + C[C@@H]1COCCN1C2=NC(=NC(=C2)C3(CC3)[S@](=N)(=O)C)C4=C5C=CNC5=NC=C4 [AZD6738] (first compound max 1 µM, 7x7, partner max 10 µM) | 0.0868 | 0.601 | 0.865 | 0.624 | 0.609 | 0.442 | 0.715 | 0.565 | 0.731 | 0.543 | 0.519 | 0.652 | 0.937 | 0.495 | 0.472 | 0.673 | 0.731 | 0.906 | 0.749 | 0.425 |
| COc1cccc(OCCCN)c1-c1cc(Nc2cnc(C#N)cn2)n[nH]1 [Prexasertib] + CCc1c2c(nc3ccc(O)cc13)-c1cc3c(c(=O)n1C2)COC(=O)[C@]3(O)CC [SN-38] (first compound max 1 µM, 7x7, partner max 0.3 µM) | 0.448 | 0.9 | 0.985 | 0.843 | 0.691 | 0.802 | 0.944 | 0.655 | 0.832 | 0.902 | 0.996 | 0.926 | 0.931 | 0.841 | 0.996 | 0.956 | 0.897 | 0.999 | 1 | 0.735 |
